Results as given in ChEMBL document CHEMBL5131528, “2-Aminoquinazolines as LRRK2 Inhibitors for Treating Parkinson's Disease” (ACS Med Chem Lett, 2022).

Biological target: Leucine-rich repeat serine/threonine-protein kinase 2 (Homo sapiens, UniProt Q5S007, G2019S)
Experiment: Inhibition of GST-tagged truncated human LRRK2 G2019S mutant using fluorescein labeled LRRKtide peptide as substrate preincubated for 15 mins followed by substrate addition and measured after 90 mins in presence of ATP at Km concentration by TR-FRET Lanthascreen assay

Leucine-rich repeat serine/threonine-protein kinase 2, sequence (Q5S007 whole entry G2019S, the tested form may be a part): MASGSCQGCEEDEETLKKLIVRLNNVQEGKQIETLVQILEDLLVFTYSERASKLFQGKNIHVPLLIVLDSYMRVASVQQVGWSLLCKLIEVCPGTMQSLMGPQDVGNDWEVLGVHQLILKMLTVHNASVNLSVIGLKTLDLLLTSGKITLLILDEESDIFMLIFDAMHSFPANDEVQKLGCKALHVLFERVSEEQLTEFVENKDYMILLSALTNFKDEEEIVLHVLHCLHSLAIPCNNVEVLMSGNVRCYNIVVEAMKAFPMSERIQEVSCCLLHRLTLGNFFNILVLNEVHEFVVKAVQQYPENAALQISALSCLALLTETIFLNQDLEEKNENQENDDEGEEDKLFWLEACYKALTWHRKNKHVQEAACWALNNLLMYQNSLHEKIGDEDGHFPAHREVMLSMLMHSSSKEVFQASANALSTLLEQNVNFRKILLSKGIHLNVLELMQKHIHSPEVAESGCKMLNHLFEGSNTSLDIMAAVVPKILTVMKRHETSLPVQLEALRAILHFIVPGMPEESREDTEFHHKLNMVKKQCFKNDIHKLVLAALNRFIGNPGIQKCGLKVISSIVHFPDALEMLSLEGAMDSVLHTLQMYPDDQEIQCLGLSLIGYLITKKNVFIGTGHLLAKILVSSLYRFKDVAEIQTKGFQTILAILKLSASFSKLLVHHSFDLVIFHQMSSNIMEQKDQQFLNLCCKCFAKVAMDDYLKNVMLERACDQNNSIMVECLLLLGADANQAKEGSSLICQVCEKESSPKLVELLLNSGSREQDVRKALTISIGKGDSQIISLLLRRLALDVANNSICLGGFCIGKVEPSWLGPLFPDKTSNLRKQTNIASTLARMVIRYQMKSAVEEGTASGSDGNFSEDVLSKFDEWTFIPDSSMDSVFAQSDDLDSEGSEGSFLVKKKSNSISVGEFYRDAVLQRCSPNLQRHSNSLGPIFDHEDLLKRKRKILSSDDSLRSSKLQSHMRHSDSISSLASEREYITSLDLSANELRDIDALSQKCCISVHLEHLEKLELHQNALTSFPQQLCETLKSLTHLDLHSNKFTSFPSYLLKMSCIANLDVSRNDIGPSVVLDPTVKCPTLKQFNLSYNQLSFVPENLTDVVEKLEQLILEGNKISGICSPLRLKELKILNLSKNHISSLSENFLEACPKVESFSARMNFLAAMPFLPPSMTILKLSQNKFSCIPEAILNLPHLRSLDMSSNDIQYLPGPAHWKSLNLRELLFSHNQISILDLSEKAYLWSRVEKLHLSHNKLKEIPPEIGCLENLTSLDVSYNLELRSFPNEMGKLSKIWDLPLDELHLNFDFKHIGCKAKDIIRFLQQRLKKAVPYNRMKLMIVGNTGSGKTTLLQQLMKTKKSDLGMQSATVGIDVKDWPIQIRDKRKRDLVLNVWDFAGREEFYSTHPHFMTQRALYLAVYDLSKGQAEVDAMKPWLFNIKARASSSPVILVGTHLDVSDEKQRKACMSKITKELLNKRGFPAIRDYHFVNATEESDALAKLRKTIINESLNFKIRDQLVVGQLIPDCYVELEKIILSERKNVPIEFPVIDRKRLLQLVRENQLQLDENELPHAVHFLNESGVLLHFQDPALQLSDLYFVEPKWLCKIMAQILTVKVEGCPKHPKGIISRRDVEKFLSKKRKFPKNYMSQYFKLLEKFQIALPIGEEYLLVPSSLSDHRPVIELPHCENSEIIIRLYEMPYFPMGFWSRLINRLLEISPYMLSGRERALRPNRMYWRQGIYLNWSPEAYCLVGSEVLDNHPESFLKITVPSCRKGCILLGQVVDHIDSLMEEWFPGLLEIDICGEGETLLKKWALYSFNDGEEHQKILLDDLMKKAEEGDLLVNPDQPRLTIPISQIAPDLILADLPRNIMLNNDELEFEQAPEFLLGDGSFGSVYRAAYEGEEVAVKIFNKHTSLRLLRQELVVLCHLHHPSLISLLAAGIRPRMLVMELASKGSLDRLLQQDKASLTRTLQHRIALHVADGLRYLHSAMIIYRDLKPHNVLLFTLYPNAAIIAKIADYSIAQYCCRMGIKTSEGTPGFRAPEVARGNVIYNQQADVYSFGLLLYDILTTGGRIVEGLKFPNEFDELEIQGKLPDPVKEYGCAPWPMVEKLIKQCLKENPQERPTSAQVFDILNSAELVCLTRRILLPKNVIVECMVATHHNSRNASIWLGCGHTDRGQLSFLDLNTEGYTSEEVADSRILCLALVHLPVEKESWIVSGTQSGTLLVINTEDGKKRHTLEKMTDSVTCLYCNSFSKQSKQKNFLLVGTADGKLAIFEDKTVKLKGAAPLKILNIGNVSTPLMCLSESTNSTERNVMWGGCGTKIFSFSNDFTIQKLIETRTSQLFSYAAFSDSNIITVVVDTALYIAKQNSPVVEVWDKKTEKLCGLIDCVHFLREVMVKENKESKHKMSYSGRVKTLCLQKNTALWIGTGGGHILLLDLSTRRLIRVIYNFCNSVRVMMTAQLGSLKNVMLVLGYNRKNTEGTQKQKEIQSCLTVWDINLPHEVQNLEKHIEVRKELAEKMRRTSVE

| SMILES | IC50 [nM] |
| --- | --- |
| CC1NN=CC1Nc1ncc2cc(Cl)c(N3CCC(C)(O)C(C)C3)cc2n1 (stereo unspecified) | 0.0646 |
| CC(C)(O)CN1CCN(c2cc3nc(Nc4cnn(C5CC5)c4Cl)ncc3cc2Cl)CC1 | 0.0759 |
| Cc1c(Nc2ncc3cc(Cl)c(N4C(=O)OC[C@H]4C)cc3n2)cnn1C1CCOCC1 | 0.451 |
| CC1(O)CCN(c2cc3nc(Nc4cnn(C5CC5)c4Cl)ncc3cc2Cl)C1 (stereo unspecified) | 0.169 |
| CC(C)(C)Cn1cc(Nc2ncc3cc(Cl)c(N4CCC(C5(C)COC5)CC4)cc3n2)cn1 | 0.187 |
| Clc1cc2cnc(Nc3cnn(C45CC(C4)C5)c3Cl)nc2cc1N1CCC2(CCCO2)CC1 | 0.174 |
